Assay [1] relates to TEX cells. Briefly: ROS generation, DCF-DA and DHE staining. The conditions noted are these: time-points up to 24 hours. Format: cell-based, human. The procedure: FIG. 4. […] (A) Cells from TEX, OCI-AML2 and two primary AML patients were treated with increasing concentrations (2.5 μM and 5 μM) of tigecycline for 36 and 48 hours of tigecycline. Total proteins were extracted and analyzed by western blotting for Cox-1, Cox-2, Cox-4, grp78, XIAP, actin and tubulin. (B) TEX and AML patient cells were treated with increasing concentrations (2.5 μM and 5 μM) of tigecycline. Cox-1, Cox-2, and Cox-4 mRNA expression relative 18S was determined by quantitative RT-PCR. Data is shown as mean±SD. (C) TEX cells were treated with increasing concentrations of tigecycline and chloramphenicol (CAP) for 72 hours. Complex I, II and IV enzyme activity relative to citrate synthase activity was determined as described in materials and methods. (D) Cells from TEX, primary AML patients, and normal donors were treated with increasing concentrations of tigecycline. Mitochondrial membrane potential (Δψ) was determined by staining cells with JC-1 dye, and flow cytometry analysis (Red/Green ratio). Reactive oxygen species generation (ROS) was determined by staining with h2-DCFDA and Dihydroethidium (DHE).
A byproduct of the mitochondrial enzyme activities of the electron transport chain is the generation of reactive oxygen species (ROS). […] Therefore, the role of tigecycline on ROS generation in leukemia cells by analyzing hydrogen peroxide ions (H2O2) using a dichlorofluorescein dye (DCF-DA), and superoxide anions using dihydroethidium (DHE) was examined.

Assay [2] deals with acute myeloid leukemia (AML). The settings on record: 13 patients treated; cited from earlier work.

Turning to `C=C(C)[C@H]1Cc2c(ccc3c2O[C@@H]2COc4cc(OC)c(OC)cc4[C@@H]2C3=O)O1` [rotenone], in assay [1], the ROS generation entry is “rapid increases in ROS levels”.

On to `NC(=O)c1ncn([C@@H]2O[C@H](CO)[C@@H](O)[C@H]2O)n1` [ribavirin], for which, in assay [2], the “complete remission (number of patients)” value was 1 and the “partial remissions (number of patients)” value was 2.

On to antimycin, for which the ROS generation result in assay [1] is on record as “rapid increases in ROS levels”.

On to `CC[C@H]1/C=C/C=C/C[C@@H](C)[C@H](O)[C@@](C)(O)C(=O)[C@@H](C)[C@H](O)[C@@H](C)C(=O)[C@@H](C)[C@H](O)[C@@H](C)/C=C/C(=O)O[C@@H]2[C@H](C)[C@H](CC1)O[C@]1(CC[C@H](C)[C@H](C[C@@H](C)O)O1)[C@H]2C` [oligomycin], for which the ROS generation entry in assay [1] is on record as “rapid increases in ROS levels”.
